In US8021694B2, “Acidified chlorite disinfectant compositions with olefin stabilizers” (Ecolab USA Inc., priority 2001, dated 2011):

Key:
Type in all cases: physicochemical
[1] = Rate of color fading at 35° C. of mixed acidified chlorite product, UV/Vis spectroscopy at 425 nm; conditions: for Initial Color Intensity Remaining, Time After Mixing 1 hour: 1 hour after mixing; for Initial Color Intensity Remaining, Time After Mixing 2 hour: 2 hour after mixing; for Initial Color Intensity Remaining, Time After Mixing 3 hour: 3 hour after mixing; for Initial Color Intensity Remaining, Time After Mixing 4 hour: 4 hour after mixing
Method: (§1) The rate of color fading at 35° C. was quantified by UV/Vis spectroscopy at 425 nm.
as §1

[2] = Rate of chlorine dioxide generation in mixed acidified chlorite product, UV/Vis spectroscopy at 360 nm; conditions: olefin 0.0225M in mixed product, 1.32% lactic acid, 0.32% sodium chlorite, pH 2.75; for Chlorine Dioxide, Time After Mixing 1 hour: 1 hour after mixing; for Chlorine Dioxide, Time After Mixing 2 hour: 2 hour after mixing; for Chlorine Dioxide, Time After Mixing 3 hour: 3 hour after mixing; for Chlorine Dioxide, Time After Mixing 4 hour: 4 hour after mixing; for Chlorine Dioxide, Time After Mixing 5 hour: 5 hour after mixing
Method: A series of two-part acidified chlorite products were prepared that when combined 1:1 produced compositions containing 1.32% lactic acid, 0.32% sodium chlorite, an olefin compound formulated at a 0.0225M, and sufficient quantities of sodium hydroxide to produce a mixed product pH of 2.75. The rate of chlorine dioxide generation was determined by UV/Vis spectroscopy at 360 nm (54.31 ppm/A.U. cm).

[3] = Rate of sodium chlorite consumption, standard iodometric titration; conditions: olefin compound at 1.4%
Text: The rate of sodium chlorite consumption was quantified using a standard iodometric titration method.

[4] = olefin 0.045M in acid part (0.0225M mixed), FD&C Yellow #5, pH 2.75
[5] = component at 0.4%, mixed product pH 2.75

CCCCCCCC/C=C\CCCCCCCC(=O)NCCOC(=O)C(CC(=O)[O-])S(=O)(=O)[O-].[Na+].[Na+] (centres unmarked) [Disodium oleamido MEA sulfosuccinate]
Initial Color Intensity Remaining, Time After Mixing 1 hour [1, 4]: ** (>50% of Initial Color Intensity Remaining) | Initial Color Intensity Remaining, Time After Mixing 2 hour [1, 4]: ** (>50% of Initial Color Intensity Remaining) | Initial Color Intensity Remaining, Time After Mixing 3 hour [1, 4]: ** (>50% of Initial Color Intensity Remaining) | Initial Color Intensity Remaining, Time After Mixing 4 hour [1, 4]: ** (>50% of Initial Color Intensity Remaining) | Initial Color Intensity Remaining, Time After Mixing ½ hour [1, 4]: ** (>50% of Initial Color Intensity Remaining)

CCCCCCCC/C=C\CCCCCCCC(=O)NCCC[N+](C)(C)CC(=O)[O-] [Oleamidopropyl betaine]
Initial Color Intensity Remaining, Time After Mixing 1 hour [1, 4]: ** (>50% of Initial Color Intensity Remaining) | Initial Color Intensity Remaining, Time After Mixing 2 hour [1, 4]: ** (>50% of Initial Color Intensity Remaining) | Initial Color Intensity Remaining, Time After Mixing 3 hour [1, 4]: ** (>50% of Initial Color Intensity Remaining) | Initial Color Intensity Remaining, Time After Mixing 4 hour [1, 4]: ** (>50% of Initial Color Intensity Remaining) | Initial Color Intensity Remaining, Time After Mixing ½ hour [1, 4]: ** (>50% of Initial Color Intensity Remaining)

CCCCCCCC/C=C\CCCCCCCC(=O)N(C)CCS(=O)(=O)[O-].[Na+] [Sodium N-methyl oleoyl taurate, sodium N-methyl oleoyl taurate]
Chlorine Dioxide, Time After Mixing 1 hour [2]: 4 ppm | Chlorine Dioxide, Time After Mixing 2 hour [2]: 5 ppm | Chlorine Dioxide, Time After Mixing 3 hour [2]: 5 ppm | Chlorine Dioxide, Time After Mixing 4 hour [2]: 6 ppm | Chlorine Dioxide, Time After Mixing 5 hour [2]: 7 ppm | Initial NaClO2 Level remaining, Time After Mixing 1 hour ([3]; 1 hour after mixing, pH 2.75 when mixed 1:1): ** (>50% Initial NaClO2 Level) | Initial NaClO2 Level remaining, Time After Mixing 2 hour ([3]; 2 hour after mixing, pH 2.75 when mixed 1:1): ** (>50% Initial NaClO2 Level) | Initial NaClO2 Level remaining, Time After Mixing 3 hour ([3]; 3 hour after mixing, pH 2.75 when mixed 1:1): ** (>50% Initial NaClO2 Level) | Initial NaClO2 Level remaining, Time After Mixing 4 hour ([3]; 4 hour after mixing, pH 2.75 when mixed 1:1): ** (>50% Initial NaClO2 Level) | Initial NaClO2 Level remaining, Time After Mixing 5 hour ([3]; 5 hour after mixing, pH 2.75 when mixed 1:1): ** (>50% Initial NaClO2 Level) | Rate of sodium chlorite consumption ([3]; equal weight-base comparison, in words): stronger effect than alpha olefin sulfonate | Initial Color Intensity Remaining, Time After Mixing 1 hour [1, 5]: ** (>50% of Initial Color Intensity Remaining) | Initial Color Intensity Remaining, Time After Mixing 1 hour [1, 4]: ** (>50% of Initial Color Intensity Remaining) | Initial Color Intensity Remaining, Time After Mixing 2 hour [1, 5]: ** (>50% of Initial Color Intensity Remaining) | Initial Color Intensity Remaining, Time After Mixing 2 hour [1, 4]: ** (>50% of Initial Color Intensity Remaining) | Initial Color Intensity Remaining, Time After Mixing 3 hour [1, 5]: ** (>50% of Initial Color Intensity Remaining) | Initial Color Intensity Remaining, Time After Mixing 3 hour [1, 4]: ** (>50% of Initial Color Intensity Remaining) | Initial Color Intensity Remaining, Time After Mixing 4 hour [1, 4]: ** (>50% of Initial Color Intensity Remaining) | Extension of colorant intensity ([1]; component at 0.4%, in words): extended the colorant intensity longer | Initial Color Intensity Remaining, Time After Mixing ½ hour [1, 5]: ** (>50% of Initial Color Intensity Remaining) | Initial Color Intensity Remaining, Time After Mixing ½ hour [1, 4]: ** (>50% of Initial Color Intensity Remaining)

CCCCCCCC/C=C\CCCCCCCC[N+](C)(CCO)CCO.[Cl-] [oleylmethylbis(hydroxyethyl)ammonium chloride]
Initial Color Intensity Remaining, Time After Mixing 1 hour [1, 4]: ** (>50% of Initial Color Intensity Remaining) | Initial Color Intensity Remaining, Time After Mixing 2 hour [1, 4]: ** (>50% of Initial Color Intensity Remaining) | Initial Color Intensity Remaining, Time After Mixing 3 hour [1, 4]: ** (>50% of Initial Color Intensity Remaining) | Initial Color Intensity Remaining, Time After Mixing 4 hour [1, 4]: ** (>50% of Initial Color Intensity Remaining) | Initial Color Intensity Remaining, Time After Mixing ½ hour [1, 4]: ** (>50% of Initial Color Intensity Remaining)

Oleth-10
Chlorine Dioxide, Time After Mixing 1 hour [2]: 10 ppm | Chlorine Dioxide, Time After Mixing 2 hour [2]: 16 ppm | Chlorine Dioxide, Time After Mixing 3 hour [2]: 21 ppm | Chlorine Dioxide, Time After Mixing 4 hour [2]: 25 ppm | Chlorine Dioxide, Time After Mixing 5 hour [2]: 28 ppm | Initial Color Intensity Remaining, Time After Mixing 1 hour [1, 4]: ** (>50% of Initial Color Intensity Remaining) | Initial Color Intensity Remaining, Time After Mixing 2 hour [1, 4]: ** (>50% of Initial Color Intensity Remaining) | Initial Color Intensity Remaining, Time After Mixing 3 hour [1, 4]: ** (>50% of Initial Color Intensity Remaining) | Initial Color Intensity Remaining, Time After Mixing 4 hour [1, 4]: ** (>50% of Initial Color Intensity Remaining) | Initial Color Intensity Remaining, Time After Mixing ½ hour [1, 4]: ** (>50% of Initial Color Intensity Remaining)

Oleth-10 phosphate
Chlorine Dioxide, Time After Mixing 1 hour [2]: 7 ppm | Chlorine Dioxide, Time After Mixing 2 hour [2]: 14 ppm | Chlorine Dioxide, Time After Mixing 3 hour [2]: 17 ppm | Chlorine Dioxide, Time After Mixing 4 hour [2]: 21 ppm | Chlorine Dioxide, Time After Mixing 5 hour [2]: 25 ppm | Initial Color Intensity Remaining, Time After Mixing 1 hour [1, 4]: ** (>50% of Initial Color Intensity Remaining) | Initial Color Intensity Remaining, Time After Mixing 2 hour [1, 4]: ** (>50% of Initial Color Intensity Remaining) | Initial Color Intensity Remaining, Time After Mixing 3 hour [1, 4]: ** (>50% of Initial Color Intensity Remaining) | Initial Color Intensity Remaining, Time After Mixing 4 hour [1, 4]: ** (>50% of Initial Color Intensity Remaining) | Initial Color Intensity Remaining, Time After Mixing ½ hour [1, 4]: ** (>50% of Initial Color Intensity Remaining)
